Reference: publication PMC11024869, “The activity of antimicrobial peptoids against multidrug-resistant ocular pathogens” (Contact lens & anterior eye : the journal of the British …, 2024)
Read-outs that look alike come from different tables or passages of the source. Non-standard residues stand in square brackets, D forms with d. Residues, ends and D or L forms follow the SMILES beside them. Nspe(4-Br) = C[C@H](NCC(=O)O)c1ccc(Br)cc1; Nspe = C[C@H](NCC(=O)O)c1ccccc1; NDecylGly = CCCCCCCCCCNCC(=O)O; Nlys = NCCCCNCC(=O)O

Legend:
[1] = system: all strains
Description: (§2) The S. pneumoniae strains used were SP04, SP06 and SP07 [46] and Streptococcus gallolyticus SV06 (all isolated from eyes of contact lens wearers during adverse events); P. aeruginosa PAO1 (which was originally isolated from a wound, and is an invasive strain containing the gene exoS) as well as isolates from microbial keratitis, PA 235 (invasive strain containing exoS), PA216 (a cytotoxic strain containing exoU), PA219 (cytotoxic strain containing exoU), PA 233 (cytotoxic strain containing exoU), with various susceptibilities to antibiotics were also used [14]. C. albicans ATCC 10231, a yeast, isolated from case of a human bronchomycosis, was also evaluated.
(§3) The peptoids’ minimum inhibitory and bactericidal concentrations (MIC and MBC) were determined using micro broth dilution methods as previously described with slight modifications, [26, 39, 49, 50], and without using acetic acid and bovine serum albumin [39]. Briefly, bacteria or yeast were suspended in Muller Hinton broth (MHB, Oxoid, Thermo Fisher Scientific, Thebarton, SA, Australia) at 0.1 OD660nm, which was equivalent to 1x10^8 colony forming units (CFU) mL^−1. This suspension was further diluted to achieve 5x10^6 CFU mL^−1. […] Post incubation, the number of CFUs on the agar plates was counted.

[2] = system: P aeruginosa 216
Description: (§1) Melimine was used as positive control as it is a cationic antimicrobial peptide that can be hydrolysed by proteases. The Expasy peptide cutter module (https://web.expasy.org/peptide_cutter/) was accessed to predict which proteases might digest melimine. The susceptibility of the antimicrobial compounds to digestion by two proteases expected to digest melimine, Proteinase K (120 unit mL^−1 in 20 mM Tris HCl, pH 7.4; New England Bio Labs, Australia) and Trypsin (10,350 BAFE units/mg in 50 mM borate buffer, pH 8.5; Thermo Scientific products, Australia), was tested. The peptoids and melimine were incubated with each protease at the ratio (w/w) of 1:100 in PBS (pH 7.4) for 24 h at 37 °C. After incubation, the peptoid/melimine + protease solutions were tested for their activity against P. aeruginosa 216 which was grown overnight in TSB at 37 °C. Bacterial cells were washed three times in PBS and then resuspended in MHB OD660nm of 0.1 (equal to 1x10^8 CFU mL^−1. The bacterial suspension was then diluted in MHB to a final working concentration of 5x10^6 cells mL^−1. The diluted bacterial suspension was subsequently added to the wells containing the peptoids/melimine + protease solution and incubated for 24 h at 37 °C. Peptoids/melimine solutions alone (no proteases) were used as a positive control, while protease solutions without the peptoids/melimine were used as a negative control. Post incubation, to inhibit the activity of the proteases, the bacterial suspensions were heated at 55 °C for 10 min in a water bath. After the heating step, the absorbance of the suspensions was measured at OD660nm.

[3] = biological target: Proteinase K (Parengyodontium album, UniProt P06873)
Proteinase K, sequence (P06873 106-384): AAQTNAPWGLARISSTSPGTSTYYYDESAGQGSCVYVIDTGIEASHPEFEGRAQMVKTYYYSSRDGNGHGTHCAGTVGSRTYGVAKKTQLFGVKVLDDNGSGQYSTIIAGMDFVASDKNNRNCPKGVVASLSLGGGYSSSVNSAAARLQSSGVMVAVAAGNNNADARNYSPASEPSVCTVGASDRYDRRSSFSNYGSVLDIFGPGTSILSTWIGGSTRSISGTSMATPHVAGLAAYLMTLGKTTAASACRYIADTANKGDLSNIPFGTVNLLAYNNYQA
Description: as §1

[4] = biological target: T1, Trypsin (Bos taurus, UniProt P00760)
T1 sequence (P00760 24-246): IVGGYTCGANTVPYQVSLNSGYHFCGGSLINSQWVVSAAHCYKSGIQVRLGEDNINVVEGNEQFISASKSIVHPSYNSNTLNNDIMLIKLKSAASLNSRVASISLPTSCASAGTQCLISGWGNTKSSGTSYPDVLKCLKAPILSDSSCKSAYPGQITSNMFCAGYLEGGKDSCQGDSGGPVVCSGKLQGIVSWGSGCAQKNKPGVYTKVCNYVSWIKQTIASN
Description: as §1

[5] = system: S. aureus strains; type: cell-based, Staphylococcus aureus; settings: summary over five S. aureus strains in text
Description: as §2, §3

[6] = system: human corneal epithelial cells; test: Cytotoxicity (MTT) to corneal epithelial cells; type: cell-based
Description: Cytotoxicity to corneal epithelial cells was assessed for peptoids TM1, TM5 and TM9 using previously published methods and FDA guidelines. These peptides represent structurally diverse types (Table 2) and had different abilities to cause hemolysis of red blood cells (Fig. 1 and Table 3). Corneal cells were seeded on 96 well plate (GreinerBio One, Frickenhauser, Germany) incubated in 5 % CO2 at 37°C and grown to 80 % confluence in Dulbecco’s modified Eagle’s medium (DMEM) (Sigma-Aldrich, Irvine, UK). They were then exposed to twofold dilutions of each peptoid at concentrations ranging from 500 to 1.95 μg mL^−1 for 24 h at 37°C. An MTT (3-(4,5-dimethylthiazol-2yl)-2,5-diphenyltetrazolium bromide; Sigma-Aldrich) working solution of 0.5 mg mL^−1 was dissolved in DMEM, 100–200 μL was dispensed into each well and incubated for 4 h at 37°C. Following incubation, MTT was replaced by dimethyl sulfoxide (DMSO, Sigma Aldrich) to dissolve the formazan crystals formed by viable cells. Absorbance of this solution was measured at OD570nm. The absorbance is directly proportional to the number of viable cells. The normalized absorbance was calculated to determine number of viable cells using the following formula: %Cytotoxicity=(Absorbance of experiment well)−mean(absorbance of control well)/mean(Absorbance of positive control well)⋆100
Data are also presented as the concentration of peptoids that caused 10 % or 50 % cytotoxicity to human corneal epithelial cells.
The geometric mean is the nth root of the multiplied numbers, where n is the total number of data values. A similar formula was used to calculate the selectivity ratio, but by using the concentration of peptoid that caused 10 % hemolysis.

[7] = system: streptococci; test: MIC micro broth dilution, summary over streptococci; type: cell-based
Description: as §2, §3

[8] = incubated with protease at ratio (w/w) 1:100 in PBS pH 7.4, 24 h 37 °C, then P aeruginosa 216 in MHB 24 h 37 °C, OD660nm

## C[C@@H](c1ccc(Br)cc1)N(CC(=O)N(CCCCN)CC(=O)N(CC(=O)N(CC(=O)N(CCCCN)CC(N)=O)[C@@H](C)c1ccc(Br)cc1)[C@@H](C)c1ccc(Br)cc1)C(=O)CN(C(=O)CNCCCCN)[C@@H](C)c1ccc(Br)cc1 [TM14] (H-[Nlys][Nspe(4-Br)][Nspe(4-Br)][Nlys][Nspe(4-Br)][Nspe(4-Br)][Nlys]-NH2)
[1]
  MICs against all strains: ≤ 12.7 µM
[2]; 216, 24 h
  MIC, No protease: 7.8 (5.8) μg mL^−1
[3]; pH 7.4
  MIC after Proteinase K: 7.8 (5.8) μg mL^−1
[4]; pH 7.4
  MIC after Trypsin: 7.8 (5.8) μg mL^−1

## CCCCCCCCCCNCC(=O)N(CCCCN)CC(=O)N(CC(=O)N(CC(=O)N(CCCCN)CC(=O)N(CC(=O)N(CC(=O)N(CCCCN)CC(N)=O)[C@@H](C)c1ccccc1)[C@@H](C)c1ccccc1)[C@@H](C)c1ccccc1)[C@@H](C)c1ccccc1 [TM18] (H-[NDecylGly][Nlys][Nspe][Nspe][Nlys][Nspe][Nspe][Nlys]-NH2)
[2]; P aeruginosa 216 in MHB, 24 h 37 °C, OD660nm, compound alone
  MIC, No protease: 15 (12) μg mL^−1
[3]; [8]
  MIC after Proteinase K: 15 (12) μg mL^−1
[4]; [8]
  MIC after Trypsin: 15 (12) μg mL^−1

## C[C@@H](c1ccccc1)N(CC(N)=O)C(=O)CN(C(=O)CN(CCCCN)C(=O)CN(C(=O)CN(C(=O)CN(CCCCN)C(=O)CN(C(=O)CN(C(=O)CN(CCCCN)C(=O)CN(C(=O)CN(C(=O)CNCCCCN)[C@@H](C)c1ccccc1)[C@@H](C)c1ccccc1)[C@@H](C)c1ccccc1)[C@@H](C)c1ccccc1)[C@@H](C)c1ccccc1)[C@@H](C)c1ccccc1)[C@@H](C)c1ccccc1 [TM1] (H-[Nlys][Nspe][Nspe][Nlys][Nspe][Nspe][Nlys][Nspe][Nspe][Nlys][Nspe][Nspe]-NH2)
[5]
  MIC among S. aureus: ≤ 9.4 µM
[6]; concentration causing 10 % cytotoxicity to human corneal epithelial cells, MTT, 24 h 37°C
  HCE CC10: 1 µM
[6]; concentration causing 50 % cytotoxicity to human corneal epithelial cells, MTT, 24 h 37°C
  HCE CC50: 10 µM
[6]; result in words
  cytotoxicity to human corneal epithelial cells relative to MIC: cytotoxic to human corneal epithelial cells at or below their MICs
[6]; selectivity ratio
  SR HCE (ratio CC10 to geometric mean MIC): 0.3
[6]; therapeutic index
  TI HCE (ratio CC50 to geometric mean MIC): 3
[7]
  MIC against other streptococci: ≤ 8.6 µM
